Assay type in all cases: in vivo
Assay [1] concerns green peach aphid (Myzus persicae). As to the kind of experiment: Myzus persicae test (soil application). Conditions: 4 ppm in soil, pepper plant. As to the method: (§1) To prepare a suitable active compound preparation 1 part by weight of the active compound is mixed with the given amount of solvent and emulsifier and the concentrate is diluted to the desired concentration with water.
The active compound mixture was mixed with soil. The concentration given refers to amount of active compound per volume unit of earth (mg/l=ppm). Pots are filled with the treated earth and planted with a pepper plant (Capsicum annuum). After a week they are infected with the green peach aphid (Myzus persicae).
(§2) After the desired time the death rate in % is determined. Here 100% means that all aphids were killed; 0% means that no aphids were killed.

Assay [2] concerns larvae of the corn root worm (Diabrotica balteata). As to the kind of experiment: Diabrotica balteata larvae test (soil application). The note with it: 8 ppm in soil, maize. How it is done:
as §1
The active compound mixture was mixed with soil. The concentration given refers to amount of active compound per volume unit of earth (mg/l=ppm). Pots are filled with the treated earth and planted with 5 maize seeds per pot. 3 days after seeding larvae of the corn root worm (Diabrotica balteata) were placed in the treated soil.
After the desired time the death rate in % is determined. The level of activity is determined by the number of emerging plants

Assay [3] deals with cotton aphid (Aphis gossypii). As to the kind of experiment: Aphis gossypii test (seed application). Conditions: 4 g ai/ha, cotton seed treatment. As to the method:
as §1
Cotton seeds (Gossypium hirsutum) are treated with the active compound preparation and sown into soil. After ca. 2 week the cotton plants are infected with the cotton aphid (Aphis gossypii). After the desired time the death rate in % is determined. Here 100% means that all aphids were killed; 0% means that no aphids were killed.

For assay [4], the system named is bird cherry-oat aphid (Rhopalosiphon padi). As to the kind of experiment: Rhopalosiphon padi test (seed application). The note with it: 1.4 g ai/kg, barley seed treatment. How it is done:
as §1
Barley seed (Hordeum vulgare) is treated with the active compound preparation and sown into the soil. After about 1 week the barley plants are infected with the bird cherry-oat aphid (Rhopalosiphon padi).
as §2

Assay [5] relates to caterpillars of the fall army worm (Spodoptera frugiperda). The assay is described as follows: Spodoptera frugiperda test (spray treatment). The note with it: 500 g/ha; spray on maize leaf sections; after 7 d. As to the method:
(§3) To prepare a suitable active compound preparation 1 part by weight of the active compound is mixed with the given amount of solvent and emulsifier and the concentrate is diluted to the desired concentration with water containing emulsifier.
Maize leaf sections (Zea mays) are sprayed with an active compound preparation at the desired concentration and after drying treated with caterpillars of the fall army worm (Spodoptera frugiperda).
After the desired time the activity in % is determined. Here 100% means that all caterpillars were killed; 0% means that no caterpillars were killed.

For assay [6], the system named is codling moth larvae (Cydia pomonella). As to the kind of experiment: Cydia pomonella test, treated feed. The note with it: 20 ppm in feed. How it is done:
as §1
The active compound preparation was mixed with feed. The concentration given relates to the amount of active compound per unit volume feed (mg/l=ppm). The treated feed is placed in Petri dishes and infected with codling moth larvae (Cydia pomonella).
After the desired time the death rate in % is determined. Here 100% means that all larvae were killed; 0% means that no larvae were killed.

For assay [7], the system named is adults of the Colorado beetle (Leptinotarsa decemlineata). As to the kind of experiment: Leptinotarsa decemlineata adults test. The note with it: 60 g/ha, spray on potato leaves. As to the method: as §3
Leaves of potato plant (Solanum tuberosum) that are infested with adults of the Colorado beetle, (Leptinotarsa decemlineata) are treated by spraying with the active compound at the desired concentration.
After the desired time the activity in % is determined. Here 100% means that all beetles were killed; 0% means that no beetles were killed.

Assay [8] has as its system horse chestnut scale (Pulvinaria regalis). The assay is described as follows: Pulvinaria regalis test, spraying of chestnut trees (Example B1). Conditions: 100 ppm, spray on chestnut trees. As to the method:
as §3
Chestnut trees (Castaney vesca) that are infested with horse chestnut scale (Pulvinaria regalis) are treated by spraying with the active compound preparation at the desired concentration.
After the desired time the death rate in % is determined. Here 100% means that all animals were killed; 0% means that no animals were killed.

Assay [9] concerns termites (Odontotermes sp.). The assay is described as follows: Odontotermes test, open land (spray treatment). Conditions: 240 g/ha, spray on obeche wood. How it is done:
(§4) To prepare a suitable active compound preparation 1 part by weight of the active compound is mixed with the given amount of water to the desired concentration.
Areas of wood of the obeche tree (Triplochiton scleroxylon) are treated by spraying with the active compound preparation at the desired concentration and infected with termites (Odontotermes sp.).
After the desired time the activity in % is determined. Here 100% means that the wood was not infested by termites; 0% means that the wood was infested by termites.

The subject of assay [10] is white fly (Bemisia tabaci), all stages. The assay is described as follows: Bemisia tabaci test, open land (spray treatment). Conditions: 300 g/ha, spray on paprika plants. As to the method:
as §4
Paprika plants (Capsicum annuum) that are infested with all stages of the white fly (Bemisia tabaci) are sprayed with an active compound preparation at the desired concentration.
After the desired time the death rate in % is determined. Here 100% means that all white fly were killed; 0% means that no white fly were killed.

For assay [11], the system named is onion thrips (Thrips tabaci). The assay is described as follows: Thrips tabaci test, open land (spray treatment). Conditions: 300 g/ha, spray on onions. As to the method: as §4
Onions (Allium cepa) that are infested with all stages of the onion thrips (Thrips tabaci) are sprayed with an active compound preparation at the desired concentration.
After the desired time the death rate in % is determined. Here 100% means that all thrips were killed; 0% means that no thrips were killed.

Assay [12] relates to brown plant hopper (Nilaparvata lugens). The assay is described as follows: Nilaparvata lugens test, open land (spray treatment). The note with it: 300 g/ha, spray on rice plants. As to the method: as §4
Rice plants (Oryza sativa) that are infested with all stages of the brown plant hopper (Nilaparvata lugens) are sprayed with an active compound preparation at the desired concentration.
After the desired time the death rate in % is determined. Here 100% means that all plant hoppers were killed; 0% means that no plant hoppers were killed.

The test system of assay [13] is green leaf hopper (Nephotettix sp.). The assay is described as follows: Nephotettix sp. test, open land (spray treatment). The note with it: 300 g/ha, spray on rice plants. How it is done: as §4
Rice plants (Oryza sativa) that are infested with all stages of the green leaf hopper (Nephotettix sp.) are sprayed with an active compound preparation at the desired concentration.
After the desired time the death rate in % is determined. Here 100% means that all leaf hoppers were killed; 0% means that no leaf hoppers were killed.

Assay [14] deals with mealy cabbage aphid (Brevicoryne brassicae). The assay is described as follows: Brevicoryne brassicae test, open land (drench application). Conditions: 0.04 g/plant, drench on cabbage plants. As to the method: as §4
Cabbage plants (Brassica oleracea) that are infested with all stages of the mealy cabbage aphid (Brevicoryne brassicae) are drenched with an active compound preparation at the desired concentration.
as §2

The test system is the same in assay [15]. The assay is described as follows: Brevicoryne brassicae test, open land (spray treatment), Example M1. Conditions: 300 g/ha, spray on cabbage plants. As to the method:
as §4
Cabbage plants (Brassica oleracea) that are infested with all stages of the mealy cabbage aphid (Brevicoryne brassicae) are sprayed with an active compound preparation at the desired concentration.
After the desired time the death rate in % is determined. Here 100% means that all nymphs were killed; 0% means that no nymphs were killed.

On to `CN(Cc1ccc(Cl)nc1)C1=CC(=O)OC1` [Compound 84], for which the “Activity in % after 7 d” value in [1], in assay [3] and in [4] was 100% each time. In assay [2], the “Activity in % after 4 d” value was determined as 100%. Also, the “Death rate in % after 7 d” value in [5] amounted to 100%. The “death rate after 7 days” value in assay [6] amounted to 100%. Moreover, the “activity after 7 days” value in assay [7] came out at 100%. For the same molecule, the “death rate after 30 days” value in assay [8] was 100%. Besides, the “activity after 45 days” value in [9] (after 45 days) was found to be 99%. For the same molecule, the “death rate after 65 days” value in [10] is reported as 93%. The entries for the “death rate after 14 days” value in [11] and in assay [12] were 89% and 91%, respectively. The “death rate after 15 days” value in [13] amounted to 98%. For the same molecule, the “death rate after 35 days” value in [14] turned out to be 100%. The “death rate after 28 days” value in assay [15] is 96%.

For the molecule `O=C1C=C(N(Cc2ccc(Cl)nc2)C2CC2)CO1` [Compound 88], the “Activity in % after 7 d” value in [1], in assay [3] and in assay [4] was 100% in each case. Moreover, the “Activity in % after 4 d” value in [2] stood at 90%. Also, the “Death rate in % after 7 d” value in assay [5] came out at 100%. In [6], the “death rate after 7 days” value is recorded as 90%. The “activity after 7 days” value in [7] amounted to 100%. In addition, the “death rate after 30 days” value in [8] is listed as 95%. The “activity after 65 days” value in [9] (after 65 days) came to 95%. The “death rate after 65 days” value in [10] is listed as 93%. For the same molecule, the “death rate after 14 days” value in [11] is given as 98%; in [12], 99%. Further, the “death rate after 15 days” value in assay [13] worked out at 99%. Also, the “death rate after 35 days” value in assay [14] amounted to 97%. Also, the “death rate after 28 days” value in [15] is 99%.

Values taken from US20080280953A1, “Agents Used for the Treatment of Seeds” (Bayer Cropscience AG, priority 2004, published 2008).
